Tested on: 439559-082-T-J2-PDC spheroid viability
Experiment: Anticancer human tumor 439559-082-T-J2-PDC patient-derived colon adenocarcinoma cell line growth inhibition [POLQ]
Conditions: spheroids with HUVEC and MSC; for IC50: curve of first compound; for viability, T/C: stronger effect = lower value
Procedure: Multicellular complex tumor spheroid response to Polymerase (POL) inhibitors (novobiocin, ART-558, RP6685) in combination with a variety of drugs and investigational agents in selected tumor cell lines
The POL inhibitors (novobiocin, ART-558, and RP6685) were evaluated both individually and in combination with standard of care and investigational anticancer small molecules within a complex spheroid model of solid tumors. . Complex spheroids include a stromal component modeled by human endothelial cells (HUVEC) and fibroblasts modeled by human mesenchymal stem cells (MSCs). The concentration ranges selected for each drug and investigational agent were based upon clinically achievable concentrations if the clinical Cmax of the agent was known.
Compounds. The drugs and investigational agents: novobiocin (NSC847541), ART-558 (NSC835418), RP-6685 (NSC848927), peposertib (NSC802822), ceralasertib (NSC780249), elimusertib (NSC800525), camonsertib (NSC841442), AZD-1390 (NSC803789), olaparib (NSC753686), talazoparib (NSC767125), rucaparib (NSC756644), sotorasib (NSC818433), MRTX-1133 (NSC836407), SN-38 (NSC673596), topotecan (NSC609699), epotoside (NSC141540), doxorubicin (NSC123127), gemcitabine (NSC613327), 5-fluorouracil (NSC19893), paclitaxel (NSC125973), vemurafenib (NSC761431), MSA-2 (NSC828583), SN-011 (NSC837082), adavosertib (NSC754352), prexasertib (NSC758257), carboplatin (NSC241240) and oxaliplatin (NSC266046), were obtained from the National Cancer Institute (NCI) Developmental Therapeutics Program Chemical Repository (21). The FDA-approved anticancer drug set is available from the Developmental Therapeutics Program at https://dtp.cancer.gov/organization/dscb/obtaining/. […] The stock solutions were prepared in dimethyl sulfoxide (DMSO, Sigma-Aldrich, St. Louis, MO, cat. D2650), except for the platinum compounds which were prepared in saline (Quality Biological, Gaithersburg, MD, cat. 114-055-101), at 800-fold the tested concentration and stored at -70 degrees C prior to their use. All drugs and investigational agents were tested over a range starting from a high concentration at or near the clinical Cmax and decreasing in half-log increments. If the clinical Cmax for an agent had not been determined, the highest concentration tested was 10 microM, except for SN-38, which was tested at a high concentration of 1 microM.
Cell Culture. All cells were maintained in an incubator at 37 degrees C and 5% CO2 with 95% humidity. The PDC lines were cultured according to standard operating procedures established by the NCI PDMR (https://pdmr.cancer.gov). Table 3 of the manuscript, lists the cell lines along with the number of the three cell types plated to form the mct-spheroids and media for tumor cell growth. After thawing, all PDC lines, except 997537-175-T-J1-PDC and 415267-285-R-J2-PDC, were cultured in Matrigel-coated flasks prepared with a working solution of 1X Ham's F-12 nutrient mix, without supplementation (Thermo Fisher Scientific, cat. 11765054), 100 U/mL penicillin-streptomycin (Thermo Fisher Scientific, cat. 15140122), and 2.5% Matrigel (Corning Inc., Corning, NY, cat. 354248) for the first three passages. The two PDC lines 997537-175-T-J1-PDC and 415267-285-R-J2-PDC were cultured on uncoated flasks. The 857933-349-R-J2-PDC line was cultured in 6C/Colon 1B media containing advanced DMEM/F-12 (Thermo Fisher Scientific, cat. 12634028), 10 mM HEPES (Thermo Fisher Scientific, cat. 15630080), 1X GlutaMAX supplement (Thermo Fisher Scientific, cat. 35050061), 0.1 mg/mL primocin (InvivoGen, San Diego, CA, cat. ant-pm-2), 10% defined fetal bovine serum, heat inactivated (HyClone Laboratories Inc., Logan, UT, cat. SH30070.03HI), 50% L-WRN conditioned media (ATCC, cat. CRL-3276), 1.25 mM N-Acetyl-L-cysteine (Sigma-Aldrich, cat. A9165), 10 mM nicotinamide (Sigma-Aldrich, cat. N0636), 1X B-27 supplement (Thermo Fisher Scientific, cat. 17504044), 1X N-2 supplement (Thermo Fisher Scientific, cat. […]

[1] = second compound 0.0316 µM, first compound 0.0316 µM
[2] = second compound 0.0316 µM, first compound 0.1 µM
[3] = second compound 0.0316 µM, first compound 0.316 µM
[4] = second compound 0.0316 µM, first compound 1 µM
[5] = second compound 0.0316 µM, first compound 3.16 µM
[6] = second compound 0.0316 µM, first compound 10 µM
[7] = second compound 0.1 µM, first compound 0.0316 µM
[8] = second compound 0.1 µM, first compound 0.1 µM
[9] = second compound 0.1 µM, first compound 0.316 µM
[10] = second compound 0.1 µM, first compound 1 µM
[11] = second compound 0.1 µM, first compound 3.16 µM
[12] = second compound 0.1 µM, first compound 10 µM
[13] = second compound 0.316 µM, first compound 0.0316 µM
[14] = second compound 0.316 µM, first compound 0.1 µM
[15] = second compound 0.316 µM, first compound 0.316 µM
[16] = second compound 0.316 µM, first compound 1 µM
[17] = second compound 0.316 µM, first compound 3.16 µM
[18] = second compound 0.316 µM, first compound 10 µM
[19] = second compound 1 µM, first compound 0.0316 µM
[20] = second compound 1 µM, first compound 0.1 µM
[21] = second compound 1 µM, first compound 0.316 µM
[22] = second compound 1 µM, first compound 1 µM
[23] = second compound 1 µM, first compound 3.16 µM
[24] = second compound 1 µM, first compound 10 µM
[25] = second compound 3.16 µM, first compound 0.0316 µM
[26] = second compound 3.16 µM, first compound 0.1 µM
[27] = second compound 3.16 µM, first compound 0.316 µM
[28] = second compound 3.16 µM, first compound 1 µM
[29] = second compound 3.16 µM, first compound 3.16 µM
[30] = second compound 3.16 µM, first compound 10 µM
[31] = second compound 10 µM, first compound 0.0316 µM
[32] = second compound 10 µM, first compound 0.1 µM
[33] = second compound 10 µM, first compound 0.316 µM
[34] = second compound 10 µM, first compound 1 µM
[35] = second compound 10 µM, first compound 3.16 µM
[36] = second compound 10 µM, first compound 10 µM
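Further: spheroids exposed to compounds for seven days before readout.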
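Wherever viability, T/C is given: 100% = DMSO vehicle control viability.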

With `CC(C)n1c(=O)n(C)c2cnc3cc(F)c(-c4ccc(OCCCN5CCCCC5)nc4)cc3c21` + Cc1cccc(N(C)C(=O)C2C(O)CCN2c2nc(C)cc(C(F)(F)F)c2C#N)c1 as the compound, how does the IC50 (second compound 0.0316 µM) read?
Its IC50 is over 10 µM.

And the IC50 (second compound 0.1 µM)?
Its IC50 is over 10 µM.

What about the IC50 (second compound 0.316 µM) of the same compound?
Its IC50 is over 10 µM.

What about the IC50 (second compound 1 µM) of the same compound?
The IC50 was over 10 µM.

And the IC50 (second compound 3.16 µM)?
The IC50 was over 10 µM.

And the IC50 (second compound 10 µM)?
The IC50 was over 10 µM.

And the viability, T/C [1]?
Its viability, T/C is 103%.

What about the viability, T/C [2] of the same compound?
The viability, T/C was 106%.

What about the viability, T/C [3] of the same compound?
Its viability, T/C is 109%.

What about the viability, T/C [4] of the same compound?
Its viability, T/C is 116%.

What about the viability, T/C [5] of the same compound?
The viability, T/C was 99.8%.

What about the viability, T/C [6] of the same compound?
The viability, T/C was 93.9%.

And the viability, T/C [7]?
Its viability, T/C is 115%.

What about the viability, T/C [8] of the same compound?
The viability, T/C was 105%.

And the viability, T/C [9]?
Its viability, T/C is 107%.

What about the viability, T/C [10] of the same compound?
Its viability, T/C is 111%.

What about the viability, T/C [11] of the same compound?
The viability, T/C was 109%.

What about the viability, T/C [12] of the same compound?
The viability, T/C was 94%.

And the viability, T/C [13]?
Its viability, T/C is 103%.

What about the viability, T/C [14] of the same compound?
The viability, T/C was 104%.

What about the viability, T/C [15] of the same compound?
Its viability, T/C is 108%.

What about the viability, T/C [16] of the same compound?
The viability, T/C was 107%.

What about the viability, T/C [17] of the same compound?
Its viability, T/C is 110%.

And the viability, T/C [18]?
The viability, T/C was 102%.

What about the viability, T/C [19] of the same compound?
Its viability, T/C is 108%.

What about the viability, T/C [20] of the same compound?
The viability, T/C was 103%.

What about the viability, T/C [21] of the same compound?
The viability, T/C was 108%.

What about the viability, T/C [22] of the same compound?
Its viability, T/C is 115%.

And the viability, T/C [23]?
The viability, T/C was 108%.

What about the viability, T/C [24] of the same compound?
The viability, T/C was 87.4%.

And the viability, T/C [25]?
Its viability, T/C is 93.5%.

What about the viability, T/C [26] of the same compound?
The viability, T/C was 111%.

And the viability, T/C [27]?
The viability, T/C was 96.9%.

What about the viability, T/C [28] of the same compound?
Its viability, T/C is 112%.

And the viability, T/C [29]?
The viability, T/C was 103%.

What about the viability, T/C [30] of the same compound?
Its viability, T/C is 81.5%.

And the viability, T/C [31]?
The viability, T/C was 96.5%.

What about the viability, T/C [32] of the same compound?
Its viability, T/C is 93.6%.

What about the viability, T/C [33] of the same compound?
The viability, T/C was 108%.

What about the viability, T/C [34] of the same compound?
The viability, T/C was 101%.

What about the viability, T/C [35] of the same compound?
The viability, T/C was 97.6%.

What about the viability, T/C [36] of the same compound?
The viability, T/C was 87.4%.

With `COc1cccc2c1C(=O)c1c(O)c3c(c(O)c1C2=O)CC(O)(C(=O)CO)CC3OC1CC(N)C(O)C(C)O1` (centres undefined) + Nc1ccc(C#CCN(C(=O)Cc2ncc(C(F)(F)F)cc2C(F)(F)F)c2ccc(F)cc2)nn1 as the compound, how does the IC50 (second compound 0.0316 µM) read?
Its IC50 is over 10 µM.

And the IC50 (second compound 0.1 µM)?
The IC50 was over 10 µM.

What about the IC50 (second compound 0.316 µM) of the same compound?
Its IC50 is over 10 µM.

What about the IC50 (second compound 1 µM) of the same compound?
The IC50 was over 10 µM.

What about the IC50 (second compound 3.16 µM) of the same compound?
Its IC50 is over 10 µM.

What about the IC50 (second compound 10 µM) of the same compound?
The IC50 was 7.09 µM.

What about the viability, T/C [1] of the same compound?
The viability, T/C was 90.2%.

What about the viability, T/C [2] of the same compound?
The viability, T/C was 83.1%.

What about the viability, T/C [3] of the same compound?
Its viability, T/C is 79.2%.

What about the viability, T/C [4] of the same compound?
The viability, T/C was 67.8%.

What about the viability, T/C [5] of the same compound?
The viability, T/C was 60.7%.

And the viability, T/C [6]?
The viability, T/C was 60.5%.

And the viability, T/C [7]?
Its viability, T/C is 99.9%.

And the viability, T/C [8]?
Its viability, T/C is 98.4%.

What about the viability, T/C [9] of the same compound?
The viability, T/C was 79.8%.

What about the viability, T/C [10] of the same compound?
Its viability, T/C is 66.5%.

And the viability, T/C [11]?
Its viability, T/C is 58.9%.

What about the viability, T/C [12] of the same compound?
The viability, T/C was 65.1%.

What about the viability, T/C [13] of the same compound?
The viability, T/C was 94.7%.

And the viability, T/C [14]?
The viability, T/C was 82.5%.

And the viability, T/C [15]?
Its viability, T/C is 78.7%.

And the viability, T/C [16]?
The viability, T/C was 59.3%.

What about the viability, T/C [17] of the same compound?
The viability, T/C was 58.1%.

And the viability, T/C [18]?
Its viability, T/C is 66.7%.

What about the viability, T/C [19] of the same compound?
Its viability, T/C is 103%.

What about the viability, T/C [20] of the same compound?
Its viability, T/C is 85.5%.

And the viability, T/C [21]?
The viability, T/C was 74.6%.

And the viability, T/C [22]?
The viability, T/C was 64%.

What about the viability, T/C [23] of the same compound?
Its viability, T/C is 57.2%.

What about the viability, T/C [24] of the same compound?
The viability, T/C was 55.8%.

And the viability, T/C [25]?
Its viability, T/C is 87.5%.

What about the viability, T/C [26] of the same compound?
The viability, T/C was 83.2%.

What about the viability, T/C [27] of the same compound?
The viability, T/C was 61.2%.

What about the viability, T/C [28] of the same compound?
Its viability, T/C is 62.4%.

What about the viability, T/C [29] of the same compound?
The viability, T/C was 67.2%.

What about the viability, T/C [30] of the same compound?
Its viability, T/C is 57.7%.

What about the viability, T/C [31] of the same compound?
Its viability, T/C is 78.8%.

What about the viability, T/C [32] of the same compound?
The viability, T/C was 74.2%.

And the viability, T/C [33]?
Its viability, T/C is 70.8%.

And the viability, T/C [34]?
Its viability, T/C is 59.7%.

And the viability, T/C [35]?
Its viability, T/C is 62.6%.

What about the viability, T/C [36] of the same compound?
The viability, T/C was 45.1%.
